Data taken from ChEMBL document CHEMBL1156443, “Guanidinylated neomycin delivers large, bioactive cargo into cells through a heparan sulfate-dependent pathway” (J Biol Chem, 2007).
Calls of active or inactive are those of the source. No cut-off for these calls is given here.

Columns and labels:
CHO [1] = experiment: Inhibition of arg9 binding to CHO cells after 1 hr by flow cytometry; type: cell-based
CHO [2] = experiment: Inhibition of arg9 binding to CHO pgsA745 mutant cells after 1 hr by flow cytometry; type: cell-based
[3] = molecular target: Fibroblast growth factor 2 (Homo sapiens, UniProt P09038); experiment: Binding affinity to biotinylated FGF2 in CHO cells by flow cytometry; type: cell-based
Fibroblast growth factor 2, sequence (P09038 143-288 limits assumed): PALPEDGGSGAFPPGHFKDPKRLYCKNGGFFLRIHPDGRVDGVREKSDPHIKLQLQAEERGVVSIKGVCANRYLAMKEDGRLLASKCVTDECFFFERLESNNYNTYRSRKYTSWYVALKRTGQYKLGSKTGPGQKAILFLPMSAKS

CHO [4] = experiment: Cytotoxicity against CHO cells upto 100 nM after 4 days by Cell-Titer assay; type: cell-based, Cricetulus griseus; conditions: chinese hamster, 96 h
CHO [5] = experiment: Cytotoxicity against CHO pgsA745 mutant cells upto 100 nM after 4 days by Cell-Titer assay; type: cell-based, Cricetulus griseus; conditions: chinese hamster, 96 h

IC50 [3] [µM]	Structure (SMILES)	Activity (CHO [1])	Activity (CHO [2])	Activity (CHO [4])	Activity (CHO [5])
20	N=C(N)NC[C@@H]1O[C@H](O[C@H]2[C@@H](O)[C@H](O[C@@H]3[C@@H](O)[C@H](NC(=N)N)C[C@H](NC(=N)N)[C@H]3O[C@H]3O[C@H](CNC(=N)N)[C@@H](O)[C@H](O)[C@H]3NC(=N)N)O[C@@H]2CO)[C@H](NC(=N)N)[C@@H](O)[C@@H]1O [GUANIDINONEOMYCIN]	Active	inactive		
	N=C(N)NC[C@@H]1O[C@H](O[C@H]2[C@@H](O)[C@H](O[C@@H]3[C@@H](O)[C@H](NC(=N)N)C[C@H](NC(=N)N)[C@H]3O[C@H]3O[C@H](CNC(=N)N)[C@@H](O)[C@H](O)[C@H]3NC(=N)N)O[C@@H]2CSCCNC(=O)CCCCCNC(=O)CCCC[C@@H]2SCC3NC(=O)NC32)[C@H](NC(=N)N)[C@@H](O)[C@@H]1O (stereo not given in full)			Non-toxic	Non-toxic
